From ChEMBL document CHEMBL1201862, “PubChem BioAssay data set” (2004) come the findings set out here.

Molecules are shown by their SMILES. Activity calls are given as the source filed them. Bounds are passed on as bounds.

Experiment [1] has as its target ALK tyrosine kinase receptor (Homo sapiens, UniProt Q9UM73). The format is functional.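 Note: ALK tested as one member of a kinase panel screen.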
The next experiment concerns the target Wee1-like protein kinase (Homo sapiens, UniProt P30291). The experiment can be described thus: Navigating the Kinome. Panel member name: WEE1. The format is functional.
The target of the next experiment is Ephrin type-A receptor 4 (Mus musculus, UniProt Q03137). The experiment can be described thus: inhibitors of EphA4 binding to KYL peptide, primary screen, biochemical, colorimetric, mouse EphA4 (AID 689). The format is functional.
Experiment [2] deals with G-protein coupled receptor 55 (Homo sapiens, UniProt Q9Y2T6). The experiment can be described thus: GPR55 antagonists blocking LPI-driven arrestin recruitment, primary screen, imaging, U2OS, beta-arrestin-GFP, LPI agonist (AID 2013).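 Note: antagonist potency measured as reduced agonist-driven arrestin aggregation.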 The format is functional.
Experiment [3] addresses Botulinum neurotoxin type A (Clostridium botulinum (strain Hall / ATCC 3502 / NCTC 13319 / Type A), UniProt P0DPI1). The experiment can be described thus: High-throughput multiplex microsphere dose response for inhibitors of toxin protease, specifically Botulinum neurotoxin light chain A protease, compounds from Cherry Pick 01. The format is functional. The settings on record: read-out: EC50_MICROM.

The nature of experiment [4]: Luminescence Cell-Based Dose Retest to Confirm Inhibitors of Cancer Stem Cells. [Related pubchem assays (depositor defined):AID2717, AID2721]. The format is functional. The settings on record: Homo sapiens.
Experiment [5] can be described thus: A Cell Based Secondary Assay to Explore Cytotoxicity in THP-1 Cells of Compounds that Modulate Mycobacterium tuberculosis in Media Containing Glycerol versus Media without Glycerol (2). The format is functional.
Experiment [6] can be described thus: microbe, parasite or virus in culture. The format is functional. The settings on record: Mycobacterium tuberculosis.
Experiment [7] has as its target T1, Short transient receptor potential channel 4 (Mus musculus, UniProt Q9QUQ5).
T1 sequence (Q9QUQ5 whole entry): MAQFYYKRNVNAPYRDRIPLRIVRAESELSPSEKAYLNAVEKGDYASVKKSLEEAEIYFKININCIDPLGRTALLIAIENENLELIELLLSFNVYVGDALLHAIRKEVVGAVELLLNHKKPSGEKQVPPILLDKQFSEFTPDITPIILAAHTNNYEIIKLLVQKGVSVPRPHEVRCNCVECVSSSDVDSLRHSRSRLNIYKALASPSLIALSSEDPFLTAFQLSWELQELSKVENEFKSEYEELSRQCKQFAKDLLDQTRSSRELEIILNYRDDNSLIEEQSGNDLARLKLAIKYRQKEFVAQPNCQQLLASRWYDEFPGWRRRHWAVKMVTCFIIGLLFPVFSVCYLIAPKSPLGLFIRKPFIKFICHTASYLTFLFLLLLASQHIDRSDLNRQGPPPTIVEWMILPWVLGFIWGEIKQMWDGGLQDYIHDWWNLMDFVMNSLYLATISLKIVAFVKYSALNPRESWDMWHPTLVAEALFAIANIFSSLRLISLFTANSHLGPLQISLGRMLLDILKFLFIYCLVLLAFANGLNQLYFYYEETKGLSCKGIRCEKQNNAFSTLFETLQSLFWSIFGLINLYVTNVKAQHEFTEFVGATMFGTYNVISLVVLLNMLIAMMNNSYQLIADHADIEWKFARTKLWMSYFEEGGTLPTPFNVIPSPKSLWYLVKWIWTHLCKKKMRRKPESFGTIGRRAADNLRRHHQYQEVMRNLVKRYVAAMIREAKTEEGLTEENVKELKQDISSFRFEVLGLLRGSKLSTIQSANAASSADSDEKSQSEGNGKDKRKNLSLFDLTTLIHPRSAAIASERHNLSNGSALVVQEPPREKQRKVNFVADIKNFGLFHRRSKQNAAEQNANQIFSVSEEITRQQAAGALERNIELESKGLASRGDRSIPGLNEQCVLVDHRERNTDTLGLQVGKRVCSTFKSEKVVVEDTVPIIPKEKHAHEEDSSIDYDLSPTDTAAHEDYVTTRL
The experiment can be described thus: mouse TRPC4 channel inhibitors, dose response, cell-based, HEK293 TRPC4/mu-opioid, Fluo-4 calcium (AID 434942).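 Note: potency of inhibitors blocking the TRPC4 calcium response.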 The format is functional.

Experiment [8] can be described thus: Vero cell cytotoxicity, cytotoxicity control for M. tuberculosis inhibitor project, purified and synthesized samples, set 3 (AID 504684). The format is functional. The settings on record: […].
Experiment [9] can be described thus: A Cell Based Secondary Assay to Explore Cytotoxicity in HepG2 Cells of Compounds that Modulate Mycobacterium tuberculosis in Media Containing Glycerol versus Media without Glycerol (2). The format is functional.
Experiment [10] has as its target Serine/threonine-protein kinase Chk1 (Homo sapiens, UniProt O14757). The format is functional.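 Note: measured as one member of a kinome-wide kinase profiling panel.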
Experiment [11] deals with Dual specificity protein kinase CLK4 (Homo sapiens, UniProt Q9HAZ1). The format is functional.
Experiment [12] deals with Mitogen-activated protein kinase 8 (Homo sapiens, UniProt P45983). The format is functional.
Experiment [13] has as its target Serine/threonine-protein kinase pim-1 (Homo sapiens, UniProt P11309). The format is functional.
Experiment [14] addresses Sphingosine 1-phosphate receptor 3 (Homo sapiens, UniProt Q99500). The experiment can be described thus: Late-stage fluorescence-based dose-response cell-based counterscreen assay to identify agonists of the Sphingosine 1-Phosphate Receptor 4 (S1P4): Sphingosine 1-Phosphate Receptor 3 (S1P3) agonist assay Set 2. The format is functional. (The purpose of a counterscreen is to sort out artefacts and off-target activity.)

Experiment [15] concerns the target Sphingosine 1-phosphate receptor 5 (Homo sapiens, UniProt Q9H228). The experiment can be described thus: S1P5 receptor agonists, human, late-stage follow-up, counter-screen for S1P4 agonist project, cell-based, fluorescence, set 2 (AID 504867). The format is functional.
Experiment [16] addresses Sphingosine 1-phosphate receptor 2 (Homo sapiens, UniProt O95136). The experiment can be described thus: S1P2 receptor agonists, human, late-stage follow-up, counter-screen for S1P4 agonist project, cell-based, fluorescence, set 2 (AID 504873). The format is functional.
The target of experiment [17] is Sphingosine 1-phosphate receptor 1 (Homo sapiens, UniProt P21453). The experiment can be described thus: Late-stage fluorescence-based dose-response cell-based counterscreen assay to identify agonists of the Sphingosine 1-Phosphate Receptor 4 (S1P4): Sphingosine 1-Phosphate Receptor 1 (S1P1) agonist assay Set 2. The format is functional.
In experiment [18] the target is Inhibitor of nuclear factor kappa-B kinase subunit epsilon (Homo sapiens, UniProt Q14164). The experiment can be described thus: Navigating the Kinome. Panel member name: IKBKE. The format is functional.
Sequence of Inhibitor of nuclear factor kappa-B kinase subunit epsilon (Q14164 whole entry): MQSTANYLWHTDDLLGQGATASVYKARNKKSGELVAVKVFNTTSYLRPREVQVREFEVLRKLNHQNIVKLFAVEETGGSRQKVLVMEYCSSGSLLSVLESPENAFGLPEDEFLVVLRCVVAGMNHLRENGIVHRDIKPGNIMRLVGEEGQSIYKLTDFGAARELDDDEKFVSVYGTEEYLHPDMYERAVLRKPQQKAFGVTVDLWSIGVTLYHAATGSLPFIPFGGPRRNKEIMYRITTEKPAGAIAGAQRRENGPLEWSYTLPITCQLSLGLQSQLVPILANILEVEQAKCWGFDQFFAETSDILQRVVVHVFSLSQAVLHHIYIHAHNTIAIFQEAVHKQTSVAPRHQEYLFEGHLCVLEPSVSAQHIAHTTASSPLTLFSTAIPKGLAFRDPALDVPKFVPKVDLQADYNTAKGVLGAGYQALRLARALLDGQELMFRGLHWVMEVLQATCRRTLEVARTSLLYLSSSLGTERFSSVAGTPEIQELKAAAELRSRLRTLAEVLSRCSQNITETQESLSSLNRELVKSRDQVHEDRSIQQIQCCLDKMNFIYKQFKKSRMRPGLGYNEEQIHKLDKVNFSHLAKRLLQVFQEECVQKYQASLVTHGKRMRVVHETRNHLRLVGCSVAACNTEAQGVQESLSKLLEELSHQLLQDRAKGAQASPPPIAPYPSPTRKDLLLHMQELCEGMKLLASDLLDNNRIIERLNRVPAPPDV
Experiment [19] concerns the target cAMP-dependent protein kinase catalytic subunit PRKX (Homo sapiens, UniProt P51817). The format is functional.
In experiment [20] the target is Cell division cycle 7-related protein kinase (Homo sapiens, UniProt O00311). The format is functional.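 Note: value obtained from a kinome-wide kinase panel.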
Experiment [21] deals with T2, High affinity choline transporter 1 (Homo sapiens, UniProt Q9GZV3).
T2 sequence (Q9GZV3 whole entry): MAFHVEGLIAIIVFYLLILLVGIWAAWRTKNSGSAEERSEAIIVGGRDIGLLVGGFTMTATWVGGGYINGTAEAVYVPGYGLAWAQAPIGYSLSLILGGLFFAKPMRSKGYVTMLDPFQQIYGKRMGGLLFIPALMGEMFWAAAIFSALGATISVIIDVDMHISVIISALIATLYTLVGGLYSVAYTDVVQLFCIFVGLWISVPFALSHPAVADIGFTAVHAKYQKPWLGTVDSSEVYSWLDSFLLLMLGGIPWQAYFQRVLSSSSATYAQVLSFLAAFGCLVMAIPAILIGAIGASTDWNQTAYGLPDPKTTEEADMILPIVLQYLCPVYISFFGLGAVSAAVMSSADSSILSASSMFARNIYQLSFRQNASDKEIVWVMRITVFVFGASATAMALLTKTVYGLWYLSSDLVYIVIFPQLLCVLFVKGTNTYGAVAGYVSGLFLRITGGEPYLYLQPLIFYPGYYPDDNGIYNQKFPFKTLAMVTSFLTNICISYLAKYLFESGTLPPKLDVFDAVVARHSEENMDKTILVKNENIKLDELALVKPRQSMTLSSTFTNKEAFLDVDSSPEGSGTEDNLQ
The experiment can be described thus: CHT activators, dose response, cell-based, 10-point CRC, membrane potential dye (AID 602376). The format is functional.

In experiment [22] the target is Voltage-dependent T-type calcium channel subunit alpha-1H (Homo sapiens, UniProt O95180). The format is functional.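 Note: channel activity triggered by adding a high calcium stimulation buffer.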
Sequence of Voltage-dependent T-type calcium channel subunit alpha-1H (O95180 whole entry): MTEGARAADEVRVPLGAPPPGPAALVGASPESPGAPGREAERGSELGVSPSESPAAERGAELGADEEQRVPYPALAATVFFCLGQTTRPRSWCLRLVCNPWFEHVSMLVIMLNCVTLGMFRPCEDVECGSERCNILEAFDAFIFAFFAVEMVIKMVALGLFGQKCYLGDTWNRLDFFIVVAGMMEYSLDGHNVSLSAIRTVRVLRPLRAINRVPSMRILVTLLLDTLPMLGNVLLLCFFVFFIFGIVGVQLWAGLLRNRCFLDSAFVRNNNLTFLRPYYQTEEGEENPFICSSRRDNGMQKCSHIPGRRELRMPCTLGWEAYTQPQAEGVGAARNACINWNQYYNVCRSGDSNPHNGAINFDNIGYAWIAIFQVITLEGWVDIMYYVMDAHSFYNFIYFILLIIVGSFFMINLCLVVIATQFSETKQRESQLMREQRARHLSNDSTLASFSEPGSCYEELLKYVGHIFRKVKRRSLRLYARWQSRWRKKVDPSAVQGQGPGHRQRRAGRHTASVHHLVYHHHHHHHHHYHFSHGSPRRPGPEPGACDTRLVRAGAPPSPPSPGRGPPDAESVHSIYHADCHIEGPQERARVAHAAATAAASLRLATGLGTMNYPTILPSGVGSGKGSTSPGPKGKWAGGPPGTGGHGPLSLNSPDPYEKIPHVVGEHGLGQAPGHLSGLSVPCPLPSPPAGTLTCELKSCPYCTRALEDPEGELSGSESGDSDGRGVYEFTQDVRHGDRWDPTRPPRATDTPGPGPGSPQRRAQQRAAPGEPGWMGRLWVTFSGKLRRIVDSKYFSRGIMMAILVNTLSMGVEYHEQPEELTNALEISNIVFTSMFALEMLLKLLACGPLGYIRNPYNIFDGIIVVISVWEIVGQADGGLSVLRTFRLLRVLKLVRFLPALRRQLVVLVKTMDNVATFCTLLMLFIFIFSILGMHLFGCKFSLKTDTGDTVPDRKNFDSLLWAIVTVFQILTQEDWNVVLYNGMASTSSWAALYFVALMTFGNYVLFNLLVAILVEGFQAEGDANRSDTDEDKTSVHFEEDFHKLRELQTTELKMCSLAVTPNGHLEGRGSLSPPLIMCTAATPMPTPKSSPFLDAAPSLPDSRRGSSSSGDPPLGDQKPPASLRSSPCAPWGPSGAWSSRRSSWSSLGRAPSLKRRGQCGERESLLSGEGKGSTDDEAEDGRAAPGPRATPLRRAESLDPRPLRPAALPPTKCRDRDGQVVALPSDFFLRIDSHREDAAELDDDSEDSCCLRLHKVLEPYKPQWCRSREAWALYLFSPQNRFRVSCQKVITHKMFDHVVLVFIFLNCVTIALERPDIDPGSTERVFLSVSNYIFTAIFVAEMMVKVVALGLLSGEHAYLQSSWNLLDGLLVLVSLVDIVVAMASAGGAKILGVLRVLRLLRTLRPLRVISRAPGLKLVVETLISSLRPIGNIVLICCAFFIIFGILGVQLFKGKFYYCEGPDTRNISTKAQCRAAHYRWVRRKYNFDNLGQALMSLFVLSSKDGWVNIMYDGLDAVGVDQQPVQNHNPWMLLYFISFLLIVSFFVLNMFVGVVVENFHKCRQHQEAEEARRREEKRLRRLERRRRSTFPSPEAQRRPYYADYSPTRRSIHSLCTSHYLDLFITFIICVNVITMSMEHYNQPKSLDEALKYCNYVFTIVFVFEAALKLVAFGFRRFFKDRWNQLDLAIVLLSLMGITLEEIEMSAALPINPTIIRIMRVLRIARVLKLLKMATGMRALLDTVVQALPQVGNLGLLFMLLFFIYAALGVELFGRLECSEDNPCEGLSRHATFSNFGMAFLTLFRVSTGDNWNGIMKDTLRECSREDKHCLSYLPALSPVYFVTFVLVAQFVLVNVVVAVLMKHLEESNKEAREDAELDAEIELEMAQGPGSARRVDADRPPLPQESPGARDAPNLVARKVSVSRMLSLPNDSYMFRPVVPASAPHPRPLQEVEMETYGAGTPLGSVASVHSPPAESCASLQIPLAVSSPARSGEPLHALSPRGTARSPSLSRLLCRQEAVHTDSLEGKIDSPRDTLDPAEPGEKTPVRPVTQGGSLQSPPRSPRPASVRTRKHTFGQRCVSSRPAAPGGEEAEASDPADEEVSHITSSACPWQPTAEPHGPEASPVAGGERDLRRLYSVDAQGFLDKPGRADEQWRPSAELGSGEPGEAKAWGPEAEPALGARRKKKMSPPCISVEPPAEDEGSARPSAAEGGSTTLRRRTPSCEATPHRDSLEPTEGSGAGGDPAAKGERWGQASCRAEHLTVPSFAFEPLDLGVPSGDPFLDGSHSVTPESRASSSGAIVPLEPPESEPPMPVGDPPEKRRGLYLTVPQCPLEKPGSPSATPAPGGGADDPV
The nature of experiment [23]: P. falciparum Dd2 growth inhibitors, dose response, SYBR Green, cherry-picked samples (AID 1159567). The format is functional, cell-based.
The target of experiment [24] is Protein disulfide-isomerase (Homo sapiens, UniProt P07237). The experiment can be described thus: PDI inhibitors, insulin aggregation turbidity, dose response, biochemical, absorbance, cherry-picked samples (AID 602350). The format is functional.

Sequence of ALK tyrosine kinase receptor (Q9UM73 whole entry): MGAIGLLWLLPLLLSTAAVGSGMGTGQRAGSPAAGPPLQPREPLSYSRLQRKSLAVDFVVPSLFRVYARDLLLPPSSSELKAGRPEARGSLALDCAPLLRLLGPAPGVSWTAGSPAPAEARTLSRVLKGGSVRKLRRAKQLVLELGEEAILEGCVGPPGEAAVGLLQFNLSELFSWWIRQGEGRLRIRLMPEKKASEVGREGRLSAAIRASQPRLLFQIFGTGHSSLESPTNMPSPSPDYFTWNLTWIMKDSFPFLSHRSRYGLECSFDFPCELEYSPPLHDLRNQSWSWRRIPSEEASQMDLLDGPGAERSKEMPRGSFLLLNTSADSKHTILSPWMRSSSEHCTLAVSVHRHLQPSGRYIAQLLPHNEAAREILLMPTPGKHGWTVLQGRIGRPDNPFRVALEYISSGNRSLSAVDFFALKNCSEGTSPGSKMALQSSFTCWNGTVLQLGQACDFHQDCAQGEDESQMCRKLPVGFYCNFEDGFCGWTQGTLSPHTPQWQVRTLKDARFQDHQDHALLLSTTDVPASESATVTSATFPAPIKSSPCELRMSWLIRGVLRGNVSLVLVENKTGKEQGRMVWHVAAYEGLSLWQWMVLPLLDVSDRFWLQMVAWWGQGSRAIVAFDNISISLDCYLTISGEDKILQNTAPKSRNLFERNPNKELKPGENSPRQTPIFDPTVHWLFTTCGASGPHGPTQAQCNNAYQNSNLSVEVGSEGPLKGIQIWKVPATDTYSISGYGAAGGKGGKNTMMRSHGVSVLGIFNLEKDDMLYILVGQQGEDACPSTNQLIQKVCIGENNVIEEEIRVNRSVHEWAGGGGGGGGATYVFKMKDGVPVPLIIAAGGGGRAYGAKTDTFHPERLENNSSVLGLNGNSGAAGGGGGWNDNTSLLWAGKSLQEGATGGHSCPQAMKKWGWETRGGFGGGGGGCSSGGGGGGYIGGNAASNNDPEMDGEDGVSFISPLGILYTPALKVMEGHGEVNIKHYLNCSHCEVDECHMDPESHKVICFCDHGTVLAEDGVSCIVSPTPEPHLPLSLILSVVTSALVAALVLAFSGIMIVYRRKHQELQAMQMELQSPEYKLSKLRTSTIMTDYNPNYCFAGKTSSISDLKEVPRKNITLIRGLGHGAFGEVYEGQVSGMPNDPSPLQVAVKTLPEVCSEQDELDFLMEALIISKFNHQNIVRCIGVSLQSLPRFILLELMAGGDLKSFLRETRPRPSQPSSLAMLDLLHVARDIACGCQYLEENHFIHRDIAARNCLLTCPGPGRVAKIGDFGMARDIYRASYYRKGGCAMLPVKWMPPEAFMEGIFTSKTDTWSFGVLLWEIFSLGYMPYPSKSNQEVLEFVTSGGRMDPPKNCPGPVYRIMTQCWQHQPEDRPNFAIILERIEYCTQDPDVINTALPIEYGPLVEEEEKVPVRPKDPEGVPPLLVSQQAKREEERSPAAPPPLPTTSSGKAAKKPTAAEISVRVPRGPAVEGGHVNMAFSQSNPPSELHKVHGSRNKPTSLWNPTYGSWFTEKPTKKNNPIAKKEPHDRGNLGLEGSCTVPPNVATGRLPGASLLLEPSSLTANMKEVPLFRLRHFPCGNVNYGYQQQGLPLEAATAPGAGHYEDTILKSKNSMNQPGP
Sequence of Sphingosine 1-phosphate receptor 5 (Q9H228 whole entry): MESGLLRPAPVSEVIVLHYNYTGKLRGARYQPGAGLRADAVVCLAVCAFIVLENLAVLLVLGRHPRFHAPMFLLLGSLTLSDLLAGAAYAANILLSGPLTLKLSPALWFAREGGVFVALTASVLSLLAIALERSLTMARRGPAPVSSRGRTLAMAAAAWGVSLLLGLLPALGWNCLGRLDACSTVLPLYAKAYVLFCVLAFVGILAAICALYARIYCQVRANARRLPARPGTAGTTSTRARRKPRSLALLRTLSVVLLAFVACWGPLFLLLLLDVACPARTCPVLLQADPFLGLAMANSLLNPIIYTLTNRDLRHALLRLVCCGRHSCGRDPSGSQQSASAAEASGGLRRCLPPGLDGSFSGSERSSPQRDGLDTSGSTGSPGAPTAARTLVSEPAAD

In general, Ki refers to a measure of affinity in units of concentration, obtained from inhibition or displacement. Turning to `CCN1CCN(c2ccc(Nc3ncc(Cl)c(Nc4ccc(O)c(NC(C)=O)c4)n3)cc2)CC1`, the figures for the inhibition constant (Ki) (in experiment [1]; on Wee1-like protein kinase) were 0.501 µM (active) and 0.00794 µM (active), respectively.

For orientation: IC50 means the concentration at which inhibition is half-maximal. As a reminder, the AC50 is the concentration at which the activity in the assay is half-maximal. Regarding `CCSc1nnc(-c2sc3nnc(-c4ccccc4)c(-c4ccccc4)c3c2N)o1`, the half-inhibitory concentration (IC50) at Ephrin type-A receptor 4 was 4.62 µM (active); in experiment [2] it was 2.44 µM (active). In addition, in experiment [3], the EC50 is 6.9 µM (active). Moreover, the AC50 in experiment [4] was 0.286 µM (active).

For the molecule `CNc1nc(SCc2ccccc2Cl)nc2c1CCCC2`, the CC50 in experiment [5] is 49.2 µM (active); in [6], 9.68 µM (active); in experiment [8] it was 25.6 µM (active); in experiment [9], 36.2 µM (active). Moreover, in experiment [7], the EC50 is 4.73 µM (active). The concentration at half-maximal activity (AC50) in experiment [4] was 8.66 µM (active).

Take `COc1ccc(C(=O)Nc2ccccc2C(=O)O)cc1OC`: the Ki in [10] is 1.58 µM (active); in [11], 1.58 µM (active); in experiment [12] it was 2.51 µM (active); in [13], 5.01 µM (active).

Regarding `CC/N=C1/S/C(=C/c2cc(C)n(-c3ccccn3)c2C)C(=O)N1CC`, the EC50 is > 25 µM (inactive) in [14], 0.72 µM (active) in [15], > 25 µM (inactive) in [16] and 0.103 µM (active) in [17].

Turning to `O=C(O)C1CN(Cc2ccc(OCc3cccc(C(F)(F)F)c3)cc2F)C1`, the inhibition constant Ki is 3.16 µM (active) in experiment [18] and 2.51 µM (active) in [19].

Consider `O=c1cc(-c2ccccc2)nc(NC2CCCCC2)[nH]1`, for which the inhibition constant (Ki) was 0.251 µM (active) in experiment [20] and > 5.01 µM (inactive) in [1].

On to `CCN(CC)CCn1c(NCc2nc3ccccc3n2Cc2ccccc2)nc2ccccc21`, for which the EC50 was 11.4 µM (active) in experiment [21] and 4.94 µM (active) in [22].

On to `C[C@H](CO)N1C[C@H](C)[C@@H](CN(C)S(=O)(=O)c2ccccc2)Oc2ccc(NC(=O)Cc3cn(C)c4ccccc34)cc2C1=O`, for which the values for the half-maximal activity concentration (AC50) in experiment [23] and in experiment [24] were 4.29 µM (active) and 0.125 µM (active), respectively.
